How the values were obtained:
Staphylococcus sp. = assay: In vitro antibacterial evaluation: minimum inhibitory concentration (MIC), broth dilution method; type: cell-based; details: for MIC Staphylococcus haemolyticus (GC 4546): strain GC 4546; for MIC Coagulase Negative Staphylococcus (GC 4547): strain GC 4547; for MIC Coagulase Negative Staphylococcus (GC 4548): strain GC 4548; for MIC Coagulase Negative Staphylococcus (GC 4549): strain GC 4549; for MIC Coagulase Negative Staphylococcus (GC 4551): strain GC 4551; for MIC Coagulase Negative Staphylococcus (GC 6257): strain GC 6257
Method in brief: (§1)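 MIC by broth dilution in Mueller-Hinton II medium following NCCLS M7-A2. Inoculum was 5×10^5 CFU/mL and antibiotic was tested over 64-0.06 μg/mL. Gram-positive panel included clinical isolates resistant to methicillin, penicillin and/or vancomycin.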

Escherichia coli = assay: as above; type: cell-based
Method in brief: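 Inoculum: 5×10^5 CFU/mL. Range: 64-0.06 μg/mL. Medium: Muller-Hinton II […]; NCCLS M7-A2 broth dilution. Endpoint: lowest concentration inhibiting growth. Strains include methicillin-, penicillin- and/or vancomycin-resistant clinical isolates.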

Streptococcus sp. = assay: as above; type: cell-based
Method in brief: as §1

Enterococcus sp. = assay: as above; type: cell-based
Method in brief: as §1

[1] = tested on: Staphylococcus aureus-SMITH (GC 4543); assay: Acute lethal infection in mice (ED50); type: in vivo; details: female CD-1 mice, intraperitoneal challenge, intravenous dose 30 min. after infection, 7 day survival ratios
Method in brief: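 IP bacterial challenge, female CD-1 mice; inoculum lethal to untreated controls in 24-48 hr. IV dosing in saline or 5% dextrose 30 min post-infection, 5 mice/dose. ED50 from 7-day survival, 3 tests pooled.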

[2] = broth dilution, 18 hours at 35° C.

Tri-N-[(phenylmethoxy)carbonyl]-cyclo[glycyl-β-methylphenylalanyltyrosyl-3-(2-iminoimidazolidin-4-yl)seryl-3-(3-hexopyranosyl-2-iminoimidazolidin-4-yl)serylseryl] [Example 89]
MIC Staphylococcus aureus (ATCC 29213) (Staphylococcus sp.; [2]): 64 µg/mL
MIC Staphylococcus aureus (GC 1131) (Staphylococcus sp.; [2]): 64 µg/mL
MIC Staphylococcus aureus (GC 3051) (Staphylococcus sp.; [2]): 64 µg/mL
MIC Staphylococcus aureus (GC 3053) (Staphylococcus sp.; [2]): 64 µg/mL
MIC Staphylococcus aureus (GC 4541) (Staphylococcus sp.; [2]): 64 µg/mL
MIC Staphylococcus aureus (GC 4542) (Staphylococcus sp.; [2]): 64 µg/mL
MIC Staphylococcus aureus (GC 4544) (Staphylococcus sp.; [2]): 64 µg/mL
MIC Staphylococcus aureus (GC 4545) (Staphylococcus sp.; [2]): 64 µg/mL
MIC Staphylococcus aureus (ATCC 29213) (Staphylococcus sp.; strain ATCC 29213, broth dilution, 18 hours at 35° C.): 64 µg/mL
MIC Staphylococcus aureus (GC 1131) (Staphylococcus sp.; strain GC 1131, broth dilution, 18 hours at 35° C.): 64 µg/mL
MIC Staphylococcus aureus (GC 3051) (Staphylococcus sp.; strain GC 3051, broth dilution, 18 hours at 35° C.): 64 µg/mL
MIC Staphylococcus aureus (GC 3053) (Staphylococcus sp.; strain GC 3053, broth dilution, 18 hours at 35° C.): 64 µg/mL
MIC Staphylococcus aureus (GC 4541) (Staphylococcus sp.; strain GC 4541, broth dilution, 18 hours at 35° C.): 64 µg/mL
MIC Staphylococcus aureus (GC 4542) (Staphylococcus sp.; strain GC 4542, broth dilution, 18 hours at 35° C.): 64 µg/mL
MIC Staphylococcus aureus-SMITH (GC 4543) (Staphylococcus sp.; strain GC 4543, 18 hours at 35° C.): 64 µg/mL
MIC Staphylococcus aureus (GC 4544) (Staphylococcus sp.; strain GC 4544, broth dilution, 18 hours at 35° C.): 64 µg/mL
MIC Staphylococcus aureus (GC 4545) (Staphylococcus sp.; strain GC 4545, broth dilution, 18 hours at 35° C.): 64 µg/mL
MIC Staphylococcus haemolyticus (GC 4546) (Staphylococcus sp.): 32 µg/mL
MIC Staphylococcus haemolyticus (GC 4546) (Staphylococcus sp.; [2]): 32 µg/mL
MIC Coagulase Negative Staphylococcus (GC 4547) (Staphylococcus sp.): 32 µg/mL
MIC Coagulase Negative Staphylococcus (GC 4547) (Staphylococcus sp.; [2]): 32 µg/mL
MIC Coagulase Negative Staphylococcus (GC 4548) (Staphylococcus sp.): 64 µg/mL
MIC Coagulase Negative Staphylococcus (GC 4548) (Staphylococcus sp.; [2]): 64 µg/mL
MIC Coagulase Negative Staphylococcus (GC 4549) (Staphylococcus sp.): 64 µg/mL
MIC Coagulase Negative Staphylococcus (GC 4549) (Staphylococcus sp.; [2]): 64 µg/mL
MIC Coagulase Negative Staphylococcus (GC 4551) (Staphylococcus sp.): 64 µg/mL
MIC Coagulase Negative Staphylococcus (GC 4551) (Staphylococcus sp.; [2]): 64 µg/mL
MIC Coagulase Negative Staphylococcus (GC 6257) (Staphylococcus sp.): 32 µg/mL
MIC Coagulase Negative Staphylococcus (GC 6257) (Staphylococcus sp.; [2]): 32 µg/mL
MIC Staphylococcus aureus-SMITH (GC 4543) (Staphylococcus sp.; strain SMITH GC 4543, broth dilution, 18 hours at 35° C.): 64 µg/mL
MIC Escherichia coli (ATCC 25922) (Escherichia coli; strain ATCC 25922): >64 µg/mL
MIC Escherichia coli (GC 4559) (Escherichia coli; strain GC 4559): >64 µg/mL
MIC Escherichia coli (GC 4560) (Escherichia coli; strain GC 4560): 32 µg/mL
MIC Streptococcus agalactiae (GC 4564) (Streptococcus sp.; Streptococcus agalactiae (GC 4564), broth dilution, 18 hours at 35° C.): 32 µg/mL
MIC Streptococcus pneumoniae (ATCC 6301) (Streptococcus sp.; Streptococcus pneumoniae (ATCC 6301), broth dilution, 18 hours at 35° C.): 16 µg/mL
MIC Streptococcus pneumoniae (GC 1894) (Streptococcus sp.; Streptococcus pneumoniae (GC 1894), broth dilution, 18 hours at 35° C.): 4 µg/mL
MIC Streptococcus pneumoniae (GC 4565) (Streptococcus sp.; Streptococcus pneumoniae (GC 4565), broth dilution, 18 hours at 35° C.): 8 µg/mL
MIC Streptococcus pyogenes (GC 4563) (Streptococcus sp.; Streptococcus pyogenes (GC 4563), broth dilution, 18 hours at 35° C.): 32 µg/mL
MIC Streptococcus pneumoniae (ATCC 6301) (Streptococcus sp.; strain ATCC 6301): 16 µg/mL
MIC Streptococcus pneumoniae (GC 1894) (Streptococcus sp.; strain GC 1894): 4 µg/mL
MIC Streptococcus pyogenes (GC 4563) (Streptococcus sp.; strain GC 4563): 32 µg/mL
MIC Streptococcus agalactiae (GC 4564) (Streptococcus sp.; strain GC 4564): 32 µg/mL
MIC Streptococcus pneumoniae (GC 4565) (Streptococcus sp.; strain GC 4565): 8 µg/mL
MIC Enterococcus avium (GC 4558) (Enterococcus sp.; Enterococcus avium (GC 4558), broth dilution, 18 hours at 35° C.): 32 µg/mL
MIC Enterococcus faecalis (ATCC 29212) (Enterococcus sp.; Enterococcus faecalis (ATCC 29212), broth dilution, 18 hours at 35° C.): 64 µg/mL
MIC Enterococcus faecalis (GC 2242) (Enterococcus sp.; Enterococcus faecalis (GC 2242), broth dilution, 18 hours at 35° C.): 64 µg/mL
MIC Enterococcus faecalis (GC 2691) (Enterococcus sp.; Enterococcus faecalis (GC 2691), broth dilution, 18 hours at 35° C.): 64 µg/mL
MIC Enterococcus faecalis (GC 3059) (Enterococcus sp.; Enterococcus faecalis (GC 3059), broth dilution, 18 hours at 35° C.): 64 µg/mL
MIC Enterococcus faecalis (GC 4552) (Enterococcus sp.; Enterococcus faecalis (GC 4552), broth dilution, 18 hours at 35° C.): 64 µg/mL
MIC Enterococcus faecalis (GC 4553) (Enterococcus sp.; Enterococcus faecalis (GC 4553), broth dilution, 18 hours at 35° C.): 64 µg/mL
MIC Enterococcus faecalis (GC 4554) (Enterococcus sp.; Enterococcus faecalis (GC 4554), broth dilution, 18 hours at 35° C.): 64 µg/mL
MIC Enterococcus faecalis (GC 6189) (Enterococcus sp.; Enterococcus faecalis (GC 6189), broth dilution, 18 hours at 35° C.): 64 µg/mL
MIC Enterococcus faecium (GC 2243) (Enterococcus sp.; Enterococcus faecium (GC 2243), broth dilution, 18 hours at 35° C.): 64 µg/mL
MIC Enterococcus faecium (GC 4556) (Enterococcus sp.; Enterococcus faecium (GC 4556), broth dilution, 18 hours at 35° C.): 64 µg/mL
MIC Enterococcus faecium (GC 4557) (Enterococcus sp.; Enterococcus faecium (GC 4557), broth dilution, 18 hours at 35° C.): 32 µg/mL
MIC Enterococcus faecalis (ATCC 29212) (Enterococcus sp.; strain ATCC 29212): 64 µg/mL
MIC Enterococcus faecalis (GC 2242) (Enterococcus sp.; strain GC 2242): 64 µg/mL
MIC Enterococcus faecium (GC 2243) (Enterococcus sp.; strain GC 2243): 64 µg/mL
MIC Enterococcus faecalis (GC 2691) (Enterococcus sp.; strain GC 2691): 64 µg/mL
MIC Enterococcus faecalis (GC 3059) (Enterococcus sp.; strain GC 3059): 64 µg/mL
MIC Enterococcus faecalis (GC 4552) (Enterococcus sp.; strain GC 4552): 64 µg/mL
MIC Enterococcus faecalis (GC 4553) (Enterococcus sp.; strain GC 4553): 64 µg/mL
MIC Enterococcus faecalis (GC 4554) (Enterococcus sp.; strain GC 4554): 64 µg/mL
MIC Enterococcus faecium (GC 4556) (Enterococcus sp.; strain GC 4556): 64 µg/mL
MIC Enterococcus faecium (GC 4557) (Enterococcus sp.; strain GC 4557): 32 µg/mL
MIC Enterococcus avium (GC 4558) (Enterococcus sp.; strain GC 4558): 32 µg/mL
MIC Enterococcus faecalis (GC 6189) (Enterococcus sp.; strain GC 6189): 64 µg/mL
median effective dose (ED50), Staphylococcus aureus-SMITH (GC 4543) [1]: >8

Reference: patent US8247211B2, “Glycopeptide antibiotics” (American Cyanamid Company, priority 2001, dated 2012)
